From patent US10231933B2, “Enteric coated, soluble creatine and polyethylene glycol composition for enhanced skeletal uptake of oral creatine” (CRYXA LLC, priority 2007, dated 2019)

How the values were obtained:
[1] = known; cited from earlier work
[2] = Muscle biopsy (vastus lateralis) ATP, creatine phosphate and creatine concentrations pre- and post-supplementation; assay type: in vivo, human
Method: The participants selected had the following characteristics:
Pre and post muscle biopsies were obtained from the vastus lateralis muscle. Samples were immediately frozen in liquid nitrogen and stored at −80° C. for later analysis. The frozen samples were weighed to the nearest 0.1 mg, freeze dried for 8 hours and reweighed. The tissue samples were extracted and then analyzed for creatine, creatine phosphate, and ATP content via […].

[3] = Blood chemistries pre- and post-supplementation; assay type: in vivo, human; parameters: ALT (SGPT): unit not given here
[4] = male, human, blood, oral, 20 gm/day
[5] = Post 5 days supplementation, muscle biopsy
[6] = post-suppl., 5 days, control 20 gm/day, experimental 10 gm/day creatine equivalent

In the case of `CN(CC(=O)O)C(=N)N.O` [creatine•H2O, creatine monohydrate], the “breakdown in the stomach” value [1] is given as “rapidly breaks down in the stomach to form creatinine”, the “time of peak blood concentration post-ingestion” value (5 hour sampling, experimental peak may not have been fully achieved) is given as “two hours” and the “Integrated area under curve” value (5 hr sampling period post-ingestion) is given as 91.8 ± 5.5 mg · dL^−1 · 5 hrs^−1. For the same molecule, the “Circulating concentrations of creatine” value (Pre ingestion) was 0.47 ± 0.35 mg/dL, the concentration at 15 min [4] was 40.8 ± 11.4 µg/mL and the concentration at 30 min [4] was 138 ± 18.6 µg/mL. For the same molecule, the concentration at 1 h [4] was 208 ± 18.7 µg/mL, the concentration at 2 h [4] was 260 ± 29.6 µg/mL and the concentration at 3 h [4] was 242 ± 12.9 µg/mL. The concentration at 4 h [4] was 162 ± 11.3 µg/mL, the concentration at 5 h [4] was 102 ± 8.5 µg/mL and the “time by which blood creatine concentrations increased significantly” value (post-ingestion) was ≤ 15 min. For the same molecule, the “peak blood concentration of creatine” value (within five hours post-ingestion) was 25.99 ± 2.96 mg/dL, the “skeletal muscle uptake (comparison of the two)” value ([2]; 50 g creatine equivalents total (creatine HCl/PEG) vs 100 g total (creatine.H2O)) was “similar” and the ATP [2, 5] was 22.7 ± 1.2 μM · gdw^−1. For the same molecule, the Creatine [2, 5] was 39.2 ± 2.7 μM · gdw^−1, the “Creatine · ATP^−1 (ratio)” value [2, 5] was 2.01 ± 0.33 ratio and the creatine phosphate [2, 5] was 75.6 ± 4.0 μM · gdw^−1. For the same molecule, the “creatine phosphate/ATP^−1” value [2, 5] was 3.34 ± 0.01, the ATP ([2]; Pre, muscle biopsy) was 21.6 ± 1.4 μM · gdw^−1 and the Creatine ([2]; Pre, muscle biopsy) was 23.0 ± 4.2 μM · gdw^−1. For the same molecule, the “Creatine · ATP^−1 (ratio)” value ([2]; Pre, muscle biopsy) was 1.36 ± 0.36 ratio, the creatine phosphate ([2]; Pre, muscle biopsy) was 71.7 ± 4.8 μM · gdw^−1 and the “creatine phosphate/ATP^−1” value ([2]; Pre, muscle biopsy) was 3.33 ± 0.01. The “muscle concentrations of free creatine and total creatine by the end of the study” value ([2]; end of 5 days supplementation) was “significantly elevated”, the “CELLULAR ATP (molar ratio)” value [2, 6] was 5.07 ± 0.24 molar ratio and the “UPTAKE EFFICACY” value [2, 6] was 5.85 ± 1.85. The free creatine [2, 6] was 39.2 ± 2.7 μM · gdw^−1, the “CELLULAR ATP (molar ratio)” value ([2]; pre-suppl., muscle biopsy) was 4.48 ± 0.30 molar ratio and the free creatine ([2]; pre-suppl., muscle biopsy) was 23.0 ± 4.2 μM · gdw^−1. For the same molecule, the “A/G Ratio (ratio)” value ([3]; Post) was 1.88 ± 0.06 ratio, the “ALT (SGPT)” value ([3]; Post) was 20.9 ± 4.1 and the “AST (SGOT)” value ([3]; Post) was 23.3 ± 2.1 IU · L^−1. For the same molecule, the “Albumin, Serum” value ([3]; Post) was 4.5 ± 0.1 g/dL, the “Alk. Phosphatase” value ([3]; Post) was 85.4 ± 9.3 IU · L^−1 and the BUN ([3]; Post) was 17.9 ± 1.8 mg/dL. For the same molecule, the “BUN/Creatinine (ratio)” value ([3]; Post) was 16.3 ± 1.4 ratio, the “Bilirubin, Total” value ([3]; Post) was 0.6 ± 0.1 mg/dL and the “Calcium, Serum” value ([3]; Post) was 9.7 ± 0.1 mg/dL. For the same molecule, the “Carbon Dioxide” value ([3]; Post) was 25.8 ± 0.7 mM · L^−1, the “Chloride, Serum” value ([3]; Post) was 101.9 ± 0.7 mM · L^−1 and the “Creatinine, Serum” value ([3]; Post) was 1.09 ± 0.07 mg/dL. The “Globulin, Serum” value ([3]; Post) was 2.4 ± 0.1 g/dL, the “Glucose, Serum” value ([3]; Post) was 82.6 ± 4.3 mg/dL and the “Iron, Serum” value ([3]; Post) was 103.3 ± 14.2 µg/dL. For the same molecule, the LDH ([3]; Post) was 157.9 ± 8.2 IU · L^−1, the “Phosphorus, Serum” value ([3]; Post) was 4.3 ± 0.3 mg/dL and the “Potassium, Serum” value ([3]; Post) was 4.4 ± 0.1 mM · L^−1. The “Protein, Serum” value ([3]; Post) was 6.9 ± 0.1 g/dL, the “Sodium, Serum” value ([3]; Post) was 138.6 ± 0.6 mM · L^−1 and the “Uric Acid, Serum” value ([3]; Post) was 4.7 ± 0.2 mg/dL. For the same molecule, the “A/G Ratio (ratio)” value ([3]; Pre) was 1.77 ± 0.06 ratio, the “ALT (SGPT)” value ([3]; Pre) was 24.1 ± 4.5 and the “AST (SGOT)” value ([3]; Pre) was 25.3 ± 3.6 IU · L^−1. For the same molecule, the “Albumin, Serum” value ([3]; Pre) was 4.5 ± 0.1 g/dL, the “Alk. Phosphatase” value ([3]; Pre) was 78.7 ± 10.1 IU · L^−1 and the BUN ([3]; Pre) was 16.4 ± 1.4 mg/dL. For the same molecule, the “BUN/Creatinine (ratio)” value ([3]; Pre) was 17.8 ± 1.3 ratio, the “Bilirubin, Total” value ([3]; Pre) was 0.6 ± 0.1 mg/dL and the “Calcium, Serum” value ([3]; Pre) was 9.9 ± 0.1 mg/dL. For the same molecule, the “Carbon Dioxide” value ([3]; Pre) was 26.7 ± 0.4 mM · L^−1, the “Chloride, Serum” value ([3]; Pre) was 101.0 ± 0.5 mM · L^−1 and the “Creatinine, Serum” value ([3]; Pre) was 0.93 ± 0.04 mg/dL. The “Globulin, Serum” value ([3]; Pre) was 2.6 ± 0.1 g/dL, the “Glucose, Serum” value ([3]; Pre) was 86.7 ± 2.7 mg/dL and the “Iron, Serum” value ([3]; Pre) was 88.8 ± 10.5 µg/dL. For the same molecule, the LDH ([3]; Pre) was 155.0 ± 6.0 IU · L^−1, the “Phosphorus, Serum” value ([3]; Pre) was 4.3 ± 0.1 mg/dL and the “Potassium, Serum” value ([3]; Pre) was 4.3 ± 0.1 mM · L^−1. For the same molecule, the “Protein, Serum” value ([3]; Pre) was 7.1 ± 0.1 g/dL, the “Sodium, Serum” value ([3]; Pre) was 139.1 ± 0.5 mM · L^−1 and the “Uric Acid, Serum” value ([3]; Pre) was 5.6 ± 0.3 mg/dL.
